Literature values, collected in paper PMC12311729, “Probing the Mechanism of L‑DOPA 2,3-Dioxygenase Using Synthetic Derivatives of 3,4-Dihydroxyhydrocinnamic Acid” (ACS Omega, 2025).

Columns and labels:
[1] = design: method as in Biochemistry 2021, 60, 32, 2492–2507; conditions: percentage of L-DOPA; ref Biochemistry 2021, 60, 32, 2492–2507; cited from earlier work
[2] = design: method as in Biochemistry 2021, 60, 32, 2492–2507; conditions: ref Biochemistry 2021, 60, 32, 2492–2507, cited from earlier work
[3] = target: L-DOPA 2,3-dioxygenase from S. lincolnensis (LmbB1) (Streptomyces lincolnensis, UniProt Q54354); design: method as in Biochemistry 2021, 60, 32, 2492–2507; conditions: percentage of L-DOPA; ref Biochemistry 2021, 60, 32, 2492–2507; cited from earlier work
Chain of L-DOPA 2,3-dioxygenase from S. lincolnensis (LmbB1) (Q54354 entry or part of it): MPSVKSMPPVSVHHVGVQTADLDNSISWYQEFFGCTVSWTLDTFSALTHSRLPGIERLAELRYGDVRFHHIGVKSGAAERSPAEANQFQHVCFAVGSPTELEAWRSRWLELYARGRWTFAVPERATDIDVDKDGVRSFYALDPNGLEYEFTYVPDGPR

[4] = target: L-DOPA 2,3-dioxygenase from S. hygroscopicus jingganensis (ShjDDO) (Streptomyces hygroscopicus, UniProt H2JL11); design: method as in Biochemistry 2021, 60, 32, 2492–2507; conditions: percentage of L-DOPA; ref Biochemistry 2021, 60, 32, 2492–2507; cited from earlier work
Chain of L-DOPA 2,3-dioxygenase from S. hygroscopicus jingganensis (ShjDDO) (H2JL11 1-162): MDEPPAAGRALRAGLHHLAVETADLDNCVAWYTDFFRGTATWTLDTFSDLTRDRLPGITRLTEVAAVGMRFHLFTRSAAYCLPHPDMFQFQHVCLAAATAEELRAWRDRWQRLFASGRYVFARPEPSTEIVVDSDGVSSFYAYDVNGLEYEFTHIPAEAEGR

[5] = design: method as in Biochemistry 2021, 60, 32, 2492–2507; conditions: percentage of L-DOPA; ref Biochemistry 2021, 60, 32, 2492–2507; cited from earlier work; remark: listed apart in the source

## N#Cc1cc(O)c(O)cc1CCN [Compound 6-cyanoDA]
[1]
  E1/2 (mV) at pH 7.4 relative to L-DOPA x 100: 129%
[2]; percentage of L-DOPA
  Catecholic pKa value relative to L-DOPA x 100: 80%
[2]; similarly 6-substituted dopamine
  pK a value of dopamine counterpart: 7.03 ± 0.06
[3]
  kSP, O2 (μM^-1 min^-1) at pH 7.5 relative to L-DOPA x 100 for LmbB1: 16%
[4]
  kSP, O2 (μM^-1 min^-1) at pH 7.5 relative to L-DOPA x 100 for ShjDDO: 3%
[5]
  CSEV (Å^3) relative to L-DOPA x 100: 94%
